Experimental data: patent US8389567B2, “Compounds that modulate intracellular calcium” (Calcimedica, Inc., priority 2007, dated 2013)

What was measured:
[1] = system: store-operated calcium entry in HEK-Zeo control cells; settings: read-out: IC50 for inhibition of calcium entry, thapsigargin store depletion, readdition of external calcium, pre-incubation with increasing doses
Procedure: (§1) To test whether the Ca^2+ entry pathway constitutively activated by STIM 1 overexpression is pharmacologically similar to endogenous SOCE, HEK[STIM1] cells are pre-incubated with increasing doses of 2-APB and STIM1-induced Ca^2+ entry is measured.

[2] = system: store-operated calcium entry in HEK[STIM1] cells; settings: read-out: IC50 for inhibition of calcium entry, thapsigargin store depletion, readdition of external calcium, pre-incubation with increasing doses
Procedure: as §1

[3] = system: STIM1-induced Ca2+ entry in HEK[STIM1] cells
Procedure: as §1

With `NCCOB(c1ccccc1)c1ccccc1` [Compound 2-APB, 2-aminoethoxydiphenyl borate] the IC50 [1] was 11.8 µM, the IC50 [2] was 10.5 µM and the “effect on calcium entry at lower concentrations” value ([3]; absence of store depletion, lower concentrations of 2-APB (biphasic effect)) was “potentiated”. It also gave an IC50 ([3]; read-out: IC50 for inhibition of constitutive calcium entry, absence of store depletion) of 10.8 µM.
